Experimental data from article PMC7344389, “Discovery of Anti-Amoebic Inhibitors from Screening the MMV Pandemic Response Box on Balamuthia mandrillaris, Naegleria fowleri, and Acanthamoeba castellanii” (Pathogens, 2020).
Like-named read-outs stand apart in the source and are kept apart here.

Legend:
Format in all cases: cell-based
[1] = test system: Acanthamoeba castellanii trophozoites; assay: CellTiter-Glo 2.0 trophocidal assay, A. castellanii; settings: for IC50: CTG method, 72 h, duplicate twofold serial dilutions from 10 µM, mean ± SD; for Selectivity Index (A549 IC50/A. castellanii IC50): SI = (IC50 A549)/(IC50 Amoeba)
Experimental: This isolate was also purchased from ATCC. Trophozoites were routinely grown axenically at 27 °C in Protease Peptone-Glucose Media (PG) in non-vented 75 cm^2 tissue culture flasks (Olympus, El Cajon, CA, USA), until the cells were 80–90% confluent. For sub-culturing, cells were mechanically harvested to detach the cells from the culture flasks. The cells were collected by centrifugation at 4000 rpm at 4 °C.
The trophocidal activity of compounds was assessed using the CellTiter-Glo 2.0 luminescent viability assay (Promega, Madison, WI, USA), as previously described. Trophozoites were routinely cultured as described above and only logarithmic trophozoites were used. […] Initially all compounds were assessed in a single-point drug screen at 10 and 1 μM, as previously described. […] We used this process to reduce the number of potential false positives. Drugs were cherry-picked, dissolved in the media specific to each parasite, and assessed in twofold serial dilutions from the highest concentration of 10 μM. All assays were incubated at each of the parasites’ representative growth temperatures, described above, for 72 h. At the 72 h time point, 25 μL of CellTiter-Glo 2.0 reagent was added to all wells of the 96-well plates using the Biomek NX^P automated workstation. The plates were protected from light and contents were mixed using an orbital shaker at 300 rpm at room temperature for 2 min to induce cell lysis. After shaking, the plates were equilibrated at room temperature for 10 min to stabilize the luminescent signal. The adenosine triphosphate (ATP) luminescent signal (relative light units; RLUs) was measured at 490 nm with a SpectraMax I3X plate reader (Molecular Devices, Sunnyvale, CA, USA). Drug inhibitory concentration (IC50) curves were generated using total ATP RLUs, where controls were calculated as the average of replicates using the Levenberg–Marquardt algorithm, using DMSO as the normalization control, as defined in Collaborative Drug Discovery Inc. (CDD) Vault (Burlingame, CA, USA). Values reported are from a minimum of two biological replicates with standard deviations.

[2] = test system: A549 human lung carcinoma cells; assay: MTS cytotoxicity counter-screen of reconfirmed hits
Experimental: Cytotoxicity of the reconfirmed hits was determined by using the CellTiter 96® AQueous One Solution Cell Proliferation Assay (Promega, Madison, WI) on A549 human lung carcinoma cells. A549 cells were seeded at a concentration of 1.6 × 10^4 cells/mL in 96-well tissue culture plates (Corning, NY, USA), in the presence of serially diluted active hits against B. mandrillaris, N. fowleri, or A. castellanii. Positive control wells contained cells and media; negative control wells contained 0.1% DMSO. Cells were grown in F12K medium supplemented with 10% FBS and 1% gentamycin (all supplied from Fisher Scientific, Atlanta, GA, USA). The inhibitor concentration started at 10 µM and was diluted in doubling dilutions to assess cytotoxicity in comparison to the respective free-living amoeba. Total volume of each well was 100 µL and plates were incubated at 37 °C, 5% CO2 for 72 h. Next, 4 h before the time-point, 20 µL of MTS (Promega, Madison, WI, USA) was added to each well. Inhibition of A549 growth was assessed at the 72 h time-point measuring the optical density (OD) values at 490 nm using a SpectraMax I3X plate reader (Molecular Devices, Sunnyvale, CA, USA). Curve fitting using non-linear regression was carried out using the average of replicates and the Levenberg–Marquardt algorithm, using DMSO as the normalization control, as defined in CDD Vault (Burlingame, CA, USA).

[3] = test system: Naegleria fowleri trophozoites; assay: CellTiter-Glo 2.0 trophocidal assay, N. fowleri
Experimental: Pathogenic Naegleria fowleri (ATCC 30215), a clinical isolate obtained from a child in Adelaide, Australia, that died of PAM in 1969 was previously purchased from the American Type Culture Collection (ATCC). Trophozoites were routinely grown axenically at 34 °C in Nelson’s complete medium (NCM) in non-vented 75 cm^2 tissue culture flasks (Olympus, El Cajon, CA, USA), until the cells were 80–90% confluent. For sub-culturing, cells were placed on ice to detach the cells from the culture flasks. The cells were collected by centrifugation at 4000 rpm at 4 °C. Complete NCM media is produced by the addition of 10% FBS and 125 μg of penicillin/streptomycin antibiotics.
The trophocidal activity of compounds was assessed using the CellTiter-Glo 2.0 luminescent viability assay (Promega, Madison, WI, USA), as previously described. Trophozoites were routinely cultured as described above and only logarithmic trophozoites were used. In brief, B. mandrillaris, N. fowleri, or A. castellanii trophozoites cultured in their corresponding media were seeded at 16,000, 3000, or 1440 cells/well into white 96-well plates (Costar 3370), respectively. Initially all compounds were assessed in a single-point drug screen at 10 and 1 μM, as previously described. […] Control wells were supplemented with 0.1% (10 μM screening plate) or 0.01% (1 μM screening plate) DMSO, as the negative controls, or 12.5 μM of chlorhexidine, as the positive control. Following the single-point assays at 10 and 1 µM, we prioritized compounds for progression to IC50 determinations. […] We used this process to reduce the number of potential false positives. Drugs were cherry-picked, dissolved in the media specific to each parasite, and assessed in twofold serial dilutions from the highest concentration of 10 μM. All assays were incubated at each of the parasites’ representative growth temperatures, described above, for 72 h. At the 72 h time point, 25 μL of CellTiter-Glo 2.0 reagent was added to all wells of the 96-well plates using the Biomek NX^P automated workstation. The plates were protected from light and contents were mixed using an orbital shaker at 300 rpm at room temperature for 2 min to induce cell lysis. After shaking, the plates were equilibrated at room temperature for 10 min to stabilize the luminescent signal. The adenosine triphosphate (ATP) luminescent signal (relative light units; RLUs) was measured at 490 nm with a SpectraMax I3X plate reader (Molecular Devices, Sunnyvale, CA, USA). Drug inhibitory concentration (IC50) curves were generated using total ATP RLUs, where controls were calculated as the average of replicates using the Levenberg–Marquardt algorithm, using DMSO as the normalization control, as defined in Collaborative Drug Discovery Inc. (CDD) Vault (Burlingame, CA, USA). Values reported are from a minimum of two biological replicates with standard deviations.

[4] = Homo sapiens, A549, MTS assay, 72 h, doubling dilutions from 10 µM, read-out: A549 Mean IC50
[5] = Naegleria fowleri, 72 h, CTG method, 72 h, duplicate twofold serial dilutions from 10 µM, mean ± SD; read-out: N. fowleri Mean IC50 (µM) ± SD
[6] = CTG method, 72 h, duplicate twofold serial dilutions from 10 µM, mean ± SD; read-out: N. fowleri Mean IC50 (µM) ± SD
[7] = MTS assay, 72 h, doubling dilutions from 10 µM, read-out: A549 Mean IC50

| Compound | IC50 [2, 4] | IC50 [3, 5] | Selectivity Index (A549 IC50/N. fowleri IC50) ([3]; SI = (IC50 A549)/(IC50 Amoeba)) | IC50 [3, 6] | IC50 [2, 7] | further results |
| --- | --- | --- | --- | --- | --- | --- |
| CCCCC(CC)CNC(=N)NC(=N)NCCCCCCNC(=N)NC(=N)NCC(CC)CCCC (centres unmarked) [Alexidine] | 2.1 µM | – | – | – | – | IC50 [1]: 2.4 ± 1.56 µM; IC50 ([1]; listed as alexidine): ≤ 10 µM; Selectivity Index (A549 IC50/A. castellanii IC50) [1]: 0.88 |
| CCC(C)(C)c1ccc(CC(C)CN2C[C@@H](C)O[C@@H](C)C2)cc1 (some centres unmarked) [Amorolfine] | > 10 µM | – | – | – | – | IC50 [1]: 1.63 ± 1.62 µM; IC50 ([1]; listed as amorolfine): ≤ 10 µM; Selectivity Index (A549 IC50/A. castellanii IC50) [1]: ≥6.13 |
| Cc1cc(C2CCCCC2)n(O)c(=O)c1 [Ciclopirox] | > 10 µM | 7.5 ± 1.4 µM | ≥1.33 | – | – | – |
| NC[C@H]1OB(O)c2c(OCCCO)cccc21 [Epetraborole] | > 10 µM | 2.6 ± 0.3 µM | ≥3.85 | – | – | – |
| CN(C)[C@@H]1C(O)=C(C(N)=O)C(=O)[C@@]2(O)C(O)=C3C(=O)c4c(O)c(NC(=O)CN5CCCC5)cc(F)c4C[C@H]3C[C@@H]12 [Eravacycline] | > 10 µM | 2.75 ± 0.35 µM | ≥3.64 | – | – | – |
| CC[C@H]1OC(=O)[C@H](C)[C@@H](O[C@H]2C[C@@](C)(OC)[C@@H](O)[C@H](C)O2)[C@H](C)[C@@H](O[C@@H]2O[C@H](C)C[C@H](N(C)C)[C@H]2O)[C@](C)(O)C[C@@H](C)C(=O)[C@H](C)[C@@H](O)[C@]1(C)O [Erythromycin] | > 10 µM | 0.24 ± 0.02 µM | ≥42.6 | – | – | Selectivity Index (A549 IC50/N. fowleri IC50) ([3]; SI = (IC50 A549)/(IC50 Amoeba); listed as erythromycin): ≥ 10; potency against N. fowleri, in words ([3]; dose-response, CTG): nanomolar potency |
| Nc1nc(F)nc2c1ncn2[C@@H]1O[C@H](CO)[C@@H](O)[C@@H]1O [Fludarabine] | – | – | <2.83 | – | – | IC50 ([3]; Naegleria fowleri; CTG method, 72 h, duplicate twofold serial dilutions from 10 µM, mean ± SD; read-out: N. fowleri Mean IC50 (µM) ± SD): 0.11 ± 0.03 µM; potency against N. fowleri, in words ([3]; dose-response, CTG): nanomolar potency; IC50 ([2]; Homo sapiens, A549, 72 h, read-out: A549 Mean IC50 (µM)): < 0.31 µM |
| N#C/C(=C1/SC[C@@H](c2ccc(Cl)cc2Cl)S1)n1ccnc1 [Luliconazole] | > 10 µM | 0.02 ± 0.01 µM | ≥556 | – | – | Selectivity Index (A549 IC50/N. fowleri IC50) ([3]; SI = (IC50 A549)/(IC50 Amoeba); listed as luliconazole): ≥ 10; potency against N. fowleri, in words ([3]; dose-response, CTG): nanomolar potency |
| Oc1c(C(Nc2nc3ccccc3s2)c2ccc(OC(F)F)cc2)ccc2cccnc12 (centres unmarked) [MMV019724] | – | – | – | 6 ± 0.7 µM | 6.2 µM | – |
| Nc1nc(N)c2c(Sc3ccccc3)cccc2n1 [MMV021759] | – | – | – | – | > 10 µM | – |
| CCC(C)NCC(O)Cn1c2ccc(Cl)cc2c2cc(Cl)ccc21 (centres unmarked) [MMV1578570] | – | – | – | 6.4 ± 0.9 µM | > 10 µM | – |
| O=c1cc(NCCCN[C@@H]2CCOc3c(Br)cc(Br)cc32)[nH]c2ccsc12 [MMV1578884] | > 10 µM | 0.08 ± 0.02 µM | ≥128 | – | – | Selectivity Index (A549 IC50/N. fowleri IC50) ([3]; SI = (IC50 A549)/(IC50 Amoeba); listed as CRS-3123): ≥ 10; potency against N. fowleri, in words ([3]; dose-response, CTG): nanomolar potency |
| O=C(Nc1cccc(C2=NCCN2)c1)c1ccc(-c2ccc(C(=O)Nc3cccc(C4=NCCN4)c3)cc2)cc1 [MMV1580853] | – | – | – | 4.95 ± 2.55 µM | > 10 µM | – |
| Cc1cccc(C)c1C(=O)Nc1nc(-c2ccccn2)cc2ccccc12 [MMV1581558] | – | – | – | – | > 10 µM | – |
| Nc1nc(Nc2ccc3nc(-c4ccc(F)cc4)cc(N)c3c2)cc(-c2ccccc2)n1 [MMV1593541] | – | – | – | 5.3 ± 0.6 µM | 2.3 µM | – |
| CCOC(=O)Nc1cc(NC(C)CC(C)CN(CC)CC)c2nc(-c3ccccc3)c(-c3ccccc3)nc2n1 (centres unmarked) [MMV1633967] | – | – | – | 8.2 ± 1 µM | > 10 µM | – |
| COc1ccc2sc3c(c2c1)NC(C)CNC3=O (centres unmarked) [MMV1782115] | – | – | – | 9.35 ± 0.35 µM | 5.8 µM | – |
| C=CCN(C(=O)OCc1ccc([N+](=O)[O-])cc1)C1CCN(CC[C@](C)(CN(C)S(=O)(=O)c2ccccc2)c2ccccc2)CC1 [MMV1782214] | – | – | – | 7.9 µM | > 10 µM | – |
| C[C@H](c1cccc2ccccc12)N(C)Cc1ccccc1 [MMV1782221] | – | – | – | – | > 10 µM | – |
| CN1c2ccc(Cl)cc2N(c2ccccc2)C(=O)c2cn(Cc3ccc(CN4CCOCC4)cc3)nc21 [MMV1782222] | – | – | – | 5.4 µM | > 10 µM | – |
| OCCC#Cc1nc(-c2ccc(F)cc2)c(-c2ccncc2)n1CCCc1ccccc1 [RWJ-67657] | > 10 µM | 5.35 ± 0.35 µM | ≥1.87 | – | – | – |
| C=C[C@]1(C)C[C@@H](OC(=O)CS[C@@H]2C[C@H]3CC[C@@H](C2)N3C)[C@]2(C)[C@H](C)CC[C@]3(CCC(=O)[C@H]32)[C@@H](C)[C@@H]1O [Retapamulin] | > 10 µM | – | ≥8.97 | 1.12 ± 0.28 µM | – | IC50 ([3]; CTG method, 72 h, duplicate twofold serial dilutions from 10 µM, mean ± SD; listed as repatamulin; read-out: N. fowleri Mean IC50 (µM) ± SD): ≤ 10 µM |
| CC[C@@]1(O)C(=O)OCc2c1cc1n(c2=O)Cc2cc3c([N+](=O)[O-])cccc3nc2-1 [Rubitecan] | 0.47 µM | 2.3 ± 0.2 µM | 0.20 | – | – | – |
| Cn1cncc1[C@@](N)(c1ccc(Cl)cc1)c1ccc2c(c1)c(-c1cccc(Cl)c1)cc(=O)n2C [Tipifarnib] | 8 µM | – | 6.50 | – | – | IC50 ([3]; Naegleria fowleri, 72 h, read-out: N. fowleri Mean IC50 (µM) ± SD): 1.23 ± 0.27 µM |
| NC(=S)N/N=C/c1ncccc1N [Triapine] | 3.5 µM | 4 ± 0.1 µM | 0.88 | – | – | – |
